Earlier results as cited in patent US20100178285A1, “SYNERGISTIC ANTHELMINTIC COMPOSITION” (priority 2006, published 2010).
Read-outs that look alike come from different tables or passages of the source.

Assays:
[1] = system: Heligmosomoides polygyrus; settings: in vitro, H. polygyrus
[2] = system: gastrointestinal nematodes of sheep and goats
[3] = system: mixed species of gastrointestinal nematodes; settings: sheep, 7.5 mg/kg
[4] = system: gastrointestinal nematodes of sheep and goats; settings: first farm, ten days after treatment
[5] = sheep
[6] = second farm, 10 days after treatment

SMILES	effect of inhibitor on efficacy of the cysteine proteinases [1]	reduction in faecal egg count [2, 6] [%]	reduction in faecal egg count ([2]; first farm, ten days after treatment) [%]	reduction in EPG [3] [%]	reduction in faecal egg count [4] [%]	free T3 and free T4 levels ([5]; either group (7.5 and 40 mg kg(−1)))	inorganic phosphate levels ([5]; groups 1 and 2)	serum albumin level ([5]; groups 1 and 2)	serum cholesterol level ([5]; groups 1 and 2)	triiodothyronine (T3) and thyroxin (T4) levels vs control ([5]; oral 7.5 mg kg(−1) (group 1))	levels of total T3 ([5]; oral 40 mg kg(−1) (group 2))	levels of total T4 ([5]; oral 40 mg kg(−1) (group 2))	alanine aminotransferase (ALT) activity ([5]; oral 7.5 and 40 mg kg(−1))	aspartate aminotransferase (AST) activity ([5]; oral 7.5 and 40 mg kg(−1))	creatinine kinase (CK) activity ([5]; oral 7.5 and 40 mg kg(−1))	lactate dehydrogenase (LDH) activity ([5]; oral 7.5 and 40 mg kg(−1))	serum alkaline phosphatase (ALP) activities ([5]; oral 7.5 and 40 mg kg(−1))
CC(C)C[C@H](NC(=O)[C@H]1O[C@@H]1C(=O)O)C(=O)NCCCCN=C(N)N [Group E-64, E-64]	completely inhibited																
CCCSc1ccc2nc(NC(=O)OC)[nH]c2c1 [albendazole]		59.4															
c1ccc([C@H]2CN3CCSC3=N2)cc1 [levamisole]		99.4	98	99.2	97	not changed	decreased	increased	increased	no significant changes	increase	decreased	increased significantly	increased significantly	increased significantly	increased significantly	decreased
